From the NIST ThermoML archive (doi:10.1021/je200609g)

Assay: xn = mol fraction of the nth substance listed
Conditions: 101 kPa, Liquid; for speed of sound: Sing-around technique in a fixed-path interferometer; for mass density: Vibrating tube method

CCn1cc[n+](C)c1.O=S(=O)([O-])C(F)(F)F [1-ethyl-3-methylimidazolium trifluoromethanesulfonate] + CC(C)O
Conditions	mass density [kg/m3]	speed of sound [m/s]
278.15 K, x1 = 0.0499	868.82	1220.6
278.15 K, x1 = 0.0996	929.8	1233.3
278.15 K, x1 = 0.15	984.2	1249.7
278.15 K, x1 = 0.2001	1032.07	1267.9
278.15 K, x1 = 0.2994	1111.77	1305.6
278.15 K, x1 = 0.4004	1177.58	1341.7
278.15 K, x1 = 0.4997	1231.42	1373.6
278.15 K, x1 = 0.5999	1276.64	1401.7
278.15 K, x1 = 0.7019	1315.15	1426.3
278.15 K, x1 = 0.7987	1347.13	1447
278.15 K, x1 = 0.8519	1362.88	1458
278.15 K, x1 = 0.8989	1375.94	1465.9
278.15 K, x1 = 0.9462	1388.37	1474.3
288.15 K, x1 = 0.0499	860.62	1188.2
288.15 K, x1 = 0.0996	921.53	1203.2
288.15 K, x1 = 0.15	975.84	1221.4
288.15 K, x1 = 0.2001	1023.66	1240.6
288.15 K, x1 = 0.2994	1103.29	1279.7
288.15 K, x1 = 0.4004	1169.07	1316.5
288.15 K, x1 = 0.4997	1222.91	1348.8
288.15 K, x1 = 0.5999	1268.13	1377.3
288.15 K, x1 = 0.7019	1306.65	1402.6
288.15 K, x1 = 0.7987	1338.64	1423.4
288.15 K, x1 = 0.8519	1354.39	1434.1
288.15 K, x1 = 0.8989	1367.46	1442.5
288.15 K, x1 = 0.9462	1379.89	1450.8
298.15 K, x1 = 0.0499	852.27	1156.4
298.15 K, x1 = 0.0996	913.15	1173.6
298.15 K, x1 = 0.15	967.41	1193.3
298.15 K, x1 = 0.2001	1015.19	1213.7
298.15 K, x1 = 0.2994	1094.81	1254.2
298.15 K, x1 = 0.4004	1160.58	1291.8
298.15 K, x1 = 0.4997	1214.45	1324.7
298.15 K, x1 = 0.5999	1259.68	1353.6
298.15 K, x1 = 0.7019	1298.2	1379.4
298.15 K, x1 = 0.7987	1330.2	1400.5
298.15 K, x1 = 0.8519	1345.96	1411.2
298.15 K, x1 = 0.8989	1359.02	1419.8
298.15 K, x1 = 0.9462	1371.46	1428.1
308.15 K, x1 = 0.0499	843.73	1124.5
308.15 K, x1 = 0.0996	904.62	1143.9
308.15 K, x1 = 0.15	958.87	1165.3
308.15 K, x1 = 0.2001	1006.67	1186.8
308.15 K, x1 = 0.2994	1086.3	1228.8
308.15 K, x1 = 0.4004	1152.12	1267.5
308.15 K, x1 = 0.4997	1206.03	1301
308.15 K, x1 = 0.5999	1251.27	1330.4
308.15 K, x1 = 0.7019	1289.82	1356.7
308.15 K, x1 = 0.7987	1321.82	1378.1
308.15 K, x1 = 0.8519	1337.58	1388.7
308.15 K, x1 = 0.8989	1350.65	1397.5
308.15 K, x1 = 0.9462	1363.08	1406
318.15 K, x1 = 0.0499	834.95	1092.5
318.15 K, x1 = 0.0996	895.92	1114.1
318.15 K, x1 = 0.15	950.21	1137.2
318.15 K, x1 = 0.2001	998.06	1159.9
318.15 K, x1 = 0.2994	1077.77	1203.6
318.15 K, x1 = 0.4004	1143.67	1243.3
318.15 K, x1 = 0.4997	1197.63	1277.6
318.15 K, x1 = 0.5999	1242.91	1307.7
318.15 K, x1 = 0.7019	1281.48	1334.4
318.15 K, x1 = 0.7987	1313.5	1356.2
318.15 K, x1 = 0.8519	1329.26	1366.7
318.15 K, x1 = 0.8989	1342.33	1375.9
318.15 K, x1 = 0.9462	1354.76	1384.3
328.15 K, x1 = 0.0499	825.89	1060.1
328.15 K, x1 = 0.0996	887.02	1084.3
328.15 K, x1 = 0.15	941.42	1109
328.15 K, x1 = 0.2001	989.35	1133
328.15 K, x1 = 0.2994	1069.21	1178.5
328.15 K, x1 = 0.4004	1135.22	1219.5
328.15 K, x1 = 0.4997	1189.27	1254.6
328.15 K, x1 = 0.5999	1234.58	1285.2
328.15 K, x1 = 0.7019	1273.2	1312.6
328.15 K, x1 = 0.7987	1305.24	1334.8
328.15 K, x1 = 0.8519	1320.99	1345.2
328.15 K, x1 = 0.8989	1334.07	1354.6
328.15 K, x1 = 0.9462	1346.5	1363.1
